Assay results published in patent US11498899B2, “Nitrone herbicides” (FMC Corporation, priority 2016, dated 2022).

How the values were obtained:
[1] = test system: barnyardgrass (Echinochloa crus-galli); test: Test A preemergence, visual injury rating 0-100 (0 no effect, 100 complete control); assay type: in vivo
[2] = test system: foxtail, giant (giant foxtail, Setaria faberii); test: Test A preemergence, visual injury rating 0-100; assay type: in vivo
[3] = test system: kochia (Kochia scoparia); test: Test A preemergence, visual injury rating 0-100; assay type: in vivo
[4] = test system: pigweed (Amaranthus retroflexus); test: Test A preemergence, visual injury rating 0-100; assay type: in vivo
[5] = test system: ragweed (common ragweed, Ambrosia elatior); test: Test A preemergence, visual injury rating 0-100; assay type: in vivo
[6] = test system: ryegrass, Italian (Italian ryegrass, Lolium multiflorum); test: Test A preemergence, visual injury rating 0-100; assay type: in vivo
[7] = test system: barnyardgrass (Echinochloa crus-galli); test: Test A postemergence, visual injury rating 0-100; assay type: in vivo; details: 0 to 100 scale
[8] = test system: blackgrass (Alopecurus myosuroides); test: Test A postemergence, visual injury rating 0-100; assay type: in vivo; details: 0 to 100 scale
[9] = test system: corn (Zea mays); test: Test A postemergence, visual injury rating 0-100; assay type: in vivo; details: 0 to 100 scale
[10] = test system: foxtail, giant (giant foxtail, Setaria faberii); test: Test A postemergence, visual injury rating 0-100; assay type: in vivo; details: 0 to 100 scale
[11] = test system: galium (catchweed bedstraw, Galium aparine); test: Test A postemergence, visual injury rating 0-100; assay type: in vivo; details: 0 to 100 scale
[12] = test system: kochia (Kochia scoparia); test: Test A postemergence, visual injury rating 0-100; assay type: in vivo; details: 0 to 100 scale
[13] = test system: pigweed (Amaranthus retroflexus); test: Test A postemergence, visual injury rating 0-100; assay type: in vivo; details: 0 to 100 scale
[14] = test system: ragweed (common ragweed, Ambrosia elatior); test: Test A postemergence, visual injury rating 0-100; assay type: in vivo; details: 0 to 100 scale
[15] = test system: ryegrass, Italian (Italian ryegrass, Lolium multiflorum); test: Test A postemergence, visual injury rating 0-100; assay type: in vivo; details: 0 to 100 scale
[16] = test system: wheat (Triticum aestivum); test: Test A postemergence, visual injury rating 0-100; assay type: in vivo; details: 0 to 100 scale
[17] = test system: ducksalad (Heteranthera limosa); test: Test B flooded paddy test, visual rating 0-100; details: Flood, 250 g ai/ha, applied to paddy water, rated after 13 to 15 days
[18] = test system: barnyardgrass (Echinochloa crus-galli); test: Test B flooded paddy test, visual rating 0-100; details: Flood, 250 g ai/ha, applied to paddy water, rated after 13 to 15 days
[19] = test system: rice (Oryza sativa); test: Test B flooded paddy test, visual rating 0-100 (0 no effect, 100 complete control); details: Flood, 250 g ai/ha, applied to paddy water, rated after 13 to 15 days

| Structure (SMILES) | Barnyardgrass plant response rating (0 to 100 scale) ([1]; 125 g ai/ha) | Barnyardgrass plant response rating (0 to 100 scale) ([1]; 500 g ai/ha) | Foxtail, Giant plant response rating (0 to 100 scale) ([2]; 125 g ai/ha) | Foxtail, Giant plant response rating (0 to 100 scale) ([2]; 500 g ai/ha) | Kochia plant response rating (0 to 100 scale) ([3]; 125 g ai/ha) | Kochia plant response rating (0 to 100 scale) ([3]; 500 g ai/ha) | Pigweed plant response rating (0 to 100 scale) ([4]; 125 g ai/ha) | Pigweed plant response rating (0 to 100 scale) ([4]; 500 g ai/ha) | Ragweed plant response rating (0 to 100 scale) ([5]; 125 g ai/ha) | Ragweed plant response rating (0 to 100 scale) ([5]; 500 g ai/ha) | Ryegrass, Italian plant response rating (0 to 100 scale) ([6]; 125 g ai/ha) | Ryegrass, Italian plant response rating (0 to 100 scale) ([6]; 500 g ai/ha) | Barnyardgrass plant response rating ([7]; 125 g ai/ha) | Barnyardgrass plant response rating ([7]; 500 g ai/ha) | Blackgrass plant response rating ([8]; 125 g ai/ha) | Blackgrass plant response rating ([8]; 500 g ai/ha) | Corn plant response rating ([9]; 125 g ai/ha) | Corn plant response rating ([9]; 500 g ai/ha) | Foxtail, Giant plant response rating ([10]; 125 g ai/ha) | Foxtail, Giant plant response rating ([10]; 500 g ai/ha) | further results |
| --- | --- | --- | --- | --- | --- | --- | --- | --- | --- | --- | --- | --- | --- | --- | --- | --- | --- | --- | --- | --- | --- |
| CC1=[N+]([O-])C(C(=O)Nc2cccc(F)c2F)C(c2cc(C)ccc2C)C1 (racemic) [Compound 79] | 90 | 90 | 80 | 90 | 0 | 20 | 0 | 0 | 0 | 0 | 30 | 50 | 70 | 80 | 20 | 70 | 20 | 70 | 70 | 90 | Galium plant response rating ([11]; 125 g ai/ha): 20; Galium plant response rating ([11]; 500 g ai/ha): 30; Kochia plant response rating ([12]; 125 g ai/ha): 0; Kochia plant response rating ([12]; 500 g ai/ha): 0; Pigweed plant response rating ([13]; 125 g ai/ha): 0; Pigweed plant response rating ([13]; 500 g ai/ha): 0; Ragweed plant response rating ([14]; 125 g ai/ha): 30; Ragweed plant response rating ([14]; 500 g ai/ha): 30; Ryegrass, Italian plant response rating ([15]; 125 g ai/ha): 0; Ryegrass, Italian plant response rating ([15]; 500 g ai/ha): 50; Wheat plant response rating ([16]; 125 g ai/ha): 20; Wheat plant response rating ([16]; 500 g ai/ha): 70; Ducksalad plant response rating (0 to 100 scale) [17]: 100; Barnyardgrass plant response rating (0 to 100 scale) [18]: 60; Rice plant response rating (0 to 100 scale) [19]: 0 |
| CC1=[N+]([O-])C(C(=O)Nc2cccc(F)c2F)C(c2cc(F)ccc2C)C1 (racemic) [Compound 81] | 90 | 90 | 60 | 90 | 0 | 50 | 0 | 20 | 0 | 0 | 0 | 10 | 80 | 80 | 0 | 50 | 20 | 20 | 60 | 80 | Galium plant response rating ([11]; 125 g ai/ha): 0; Galium plant response rating ([11]; 500 g ai/ha): 30; Kochia plant response rating ([12]; 125 g ai/ha): 0; Kochia plant response rating ([12]; 500 g ai/ha): 0; Pigweed plant response rating ([13]; 125 g ai/ha): 0; Pigweed plant response rating ([13]; 500 g ai/ha): 0; Ragweed plant response rating ([14]; 125 g ai/ha): 0; Ragweed plant response rating ([14]; 500 g ai/ha): 0; Ryegrass, Italian plant response rating ([15]; 125 g ai/ha): 0; Ryegrass, Italian plant response rating ([15]; 500 g ai/ha): 20; Wheat plant response rating ([16]; 125 g ai/ha): 0; Wheat plant response rating ([16]; 500 g ai/ha): 30; Ducksalad plant response rating (0 to 100 scale) [17]: 100; Barnyardgrass plant response rating (0 to 100 scale) [18]: 25; Rice plant response rating (0 to 100 scale) [19]: 0 |
| CC1=[N+]([O-])C(C(=O)Nc2cccc(F)c2F)C(c2cc(C)nc(OC(F)F)c2)C1 (racemic) [Compound 83] | 90 | 90 | 90 | 90 | 0 | 50 | 60 | 90 | 10 | 90 | 70 | 90 | 80 | 90 | 70 | 80 | 70 | 90 | 80 | 90 | Galium plant response rating ([11]; 125 g ai/ha): 60; Galium plant response rating ([11]; 500 g ai/ha): 70; Kochia plant response rating ([12]; 125 g ai/ha): 30; Kochia plant response rating ([12]; 500 g ai/ha): 50; Pigweed plant response rating ([13]; 125 g ai/ha): 30; Pigweed plant response rating ([13]; 500 g ai/ha): 80; Ragweed plant response rating ([14]; 125 g ai/ha): 30; Ragweed plant response rating ([14]; 500 g ai/ha): 70; Ryegrass, Italian plant response rating ([15]; 125 g ai/ha): 60; Ryegrass, Italian plant response rating ([15]; 500 g ai/ha): 80; Wheat plant response rating ([16]; 125 g ai/ha): 60; Wheat plant response rating ([16]; 500 g ai/ha): 80; Ducksalad plant response rating (0 to 100 scale) [17]: 75; Barnyardgrass plant response rating (0 to 100 scale) [18]: 80; Rice plant response rating (0 to 100 scale) [19]: 0 |
| CC1=[N+]([O-])C(C(=O)Nc2cccc(F)c2F)C(c2cc(F)c(F)c(Oc3ncc(F)cn3)c2)C1 (racemic) [Compound 85] | 80 | 100 | 80 | 100 | 0 | 10 | 50 | 0 | 0 | 0 | 60 | 90 | 40 | 80 | 60 | 80 | 60 | 90 | 60 | 80 | Galium plant response rating ([11]; 125 g ai/ha): 20; Galium plant response rating ([11]; 500 g ai/ha): 30; Kochia plant response rating ([12]; 125 g ai/ha): 0; Kochia plant response rating ([12]; 500 g ai/ha): 0; Pigweed plant response rating ([13]; 125 g ai/ha): 0; Pigweed plant response rating ([13]; 500 g ai/ha): 0; Ragweed plant response rating ([14]; 125 g ai/ha): 0; Ragweed plant response rating ([14]; 500 g ai/ha): 0; Ryegrass, Italian plant response rating ([15]; 125 g ai/ha): 0; Ryegrass, Italian plant response rating ([15]; 500 g ai/ha): 60; Wheat plant response rating ([16]; 125 g ai/ha): 50; Wheat plant response rating ([16]; 500 g ai/ha): 90; Ducksalad plant response rating (0 to 100 scale) [17]: 0; Barnyardgrass plant response rating (0 to 100 scale) [18]: 0; Rice plant response rating (0 to 100 scale) [19]: 0 |
| CC1=[N+]([O-])C(C(=O)Nc2cccc(F)c2F)C(c2cc(C)n(Cc3ccc(Cl)cc3)c(=O)c2)C1 (racemic) [Compound 86] | 0 | 0 | 0 | 0 | 0 | 0 | 0 | 0 | 0 | 0 | 0 | 0 | 0 | 0 | 0 | 0 | 0 | 10 | 0 | 0 | Galium plant response rating ([11]; 125 g ai/ha): 0; Galium plant response rating ([11]; 500 g ai/ha): 0; Kochia plant response rating ([12]; 125 g ai/ha): 0; Kochia plant response rating ([12]; 500 g ai/ha): 0; Pigweed plant response rating ([13]; 125 g ai/ha): 0; Pigweed plant response rating ([13]; 500 g ai/ha): 0; Ragweed plant response rating ([14]; 125 g ai/ha): 0; Ragweed plant response rating ([14]; 500 g ai/ha): 0; Ryegrass, Italian plant response rating ([15]; 125 g ai/ha): 0; Ryegrass, Italian plant response rating ([15]; 500 g ai/ha): 0; Wheat plant response rating ([16]; 125 g ai/ha): 0; Wheat plant response rating ([16]; 500 g ai/ha): 0; Ducksalad plant response rating (0 to 100 scale) [17]: 0; Barnyardgrass plant response rating (0 to 100 scale) [18]: 0; Rice plant response rating (0 to 100 scale) [19]: 0 |
